The Emax is the size of the effect at its maximum, as opposed to the concentration needed. The EC50 is the concentration at which the effect is half-maximal.

Drawing on patent US11884676B2, “Substituted pyrimido[1,2-b]pyridazines as positive allosteric modulators of the muscarinic acetylcholine receptor M4” (Vanderbilt University, priority 2020, dated 2024), this text covers Emax and EC50 for 10 compounds.

The assay deals with T1, Human M4 (Homo sapiens, UniProt P08173).
T1 construct: expressed in transfected cells
T1 sequence (P08173 1-479): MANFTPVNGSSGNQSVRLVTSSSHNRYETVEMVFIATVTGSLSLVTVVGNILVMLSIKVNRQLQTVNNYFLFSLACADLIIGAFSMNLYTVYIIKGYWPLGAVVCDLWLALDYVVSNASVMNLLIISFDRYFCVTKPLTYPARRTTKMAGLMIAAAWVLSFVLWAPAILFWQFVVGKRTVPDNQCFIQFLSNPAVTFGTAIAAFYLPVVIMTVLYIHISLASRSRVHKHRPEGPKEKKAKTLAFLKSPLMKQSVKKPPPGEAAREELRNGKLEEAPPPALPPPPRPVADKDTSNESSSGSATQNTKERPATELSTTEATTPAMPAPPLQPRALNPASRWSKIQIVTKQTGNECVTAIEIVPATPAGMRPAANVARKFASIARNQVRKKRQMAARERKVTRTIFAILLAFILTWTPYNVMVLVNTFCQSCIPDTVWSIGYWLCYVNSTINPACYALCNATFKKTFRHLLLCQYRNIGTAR
The experiment in a line: mAChR M4 cell-based functional assay (calcium flux, PAM mode). To be noted: hM4-Gqi5 CHO-K1 cells; for Emax at 30 µM: CHO-K1, % ACh maximum at 30 μM; for EC50: concentration-dependent increase in the EC20 acetylcholine response. The procedure:
Human and rat M4 cDNAs, along with the chimeric G protein Gqi5, were transfected into Chinese hamster ovary (CHO-K1) cells purchased from the American Type Culture Collection using Lipofectamine2000. hM4-Gqi5 cells were grown in Ham's F-12 medium containing 10% heat-inactivated fetal bovine serum (FBS), 20 mM HEPES, 50 μg/mL G418 sulfate, and 500 μg/mL Hygromycin B. rM4-Gqi5 cells were grown in DMEM containing 10% heat-inactivated FBS, 20 mM HEPES, 400 μg/mL G418 sulfate, and 500 μg/mL Hygromycin B.
For high throughput measurement of agonist-evoked increases in intracellular calcium, CHO-K1 cells stably expressing muscarinic receptors were plated in growth medium lacking G418 and hygromycin at 15,000 cells/20 μL/well in Greiner 384-well black-walled, tissue culture (TC)-treated, clear-bottom plates (VWR). Cells were incubated overnight at 37° C. and 5% CO2. The next day, cells were washed using an ELX 405 (BioTek) with assay buffer; the final volume was then aspirated to 20 μL. Next, 20 μL of a 2.3 μM stock of Fluo-4/acetoxymethyl ester (Invitrogen, Carlsbad, CA), prepared as a 2.3 mM stock in DMSO and mixed in a 1:1 ratio with 10% (w/v) Pluronic F-127 and diluted in assay buffer, was added to the wells and the cell plates were incubated for 50 min at 37° C. and 5% CO2. Dye was removed by washing with the ELX 405 and the final volume was aspirated to 20 μL. Compound master plates were formatted in an 11 point concentration-response curve (CRC) format (1:3 dilutions) in 100% DMSO with a starting concentration of 10 mM using a BRAVO liquid handler (Agilent). Test compound CRCs were then transferred to daughter plates (240 nL) using the Echo acoustic plate reformatter (Labcyte, Sunnyvale, CA) and then diluted into assay buffer (40 μL) to a 2× stock using a Thermo Fisher Combi (Thermo Fisher Scientific, Waltham, MA).
Calcium flux was measured using the Functional Drug Screening System (FDSS) 6000 or 7000 (Hamamatsu Corporation, Tokyo, Japan) as an increase in the fluorescent static ratio. Compounds were applied to cells (20 μL, 2×) using the automated system of the FDSS at 2-4 seconds into the protocol and the data were collected at 1 Hz. At 144 seconds, 10 μL of an EC20 concentration of the muscarinic receptor agonist acetylcholine was added (5×), followed by the addition of 12 μL of an EC80 concentration of acetylcholine at the 230 second time point (5×). Agonist activity was analyzed as a concentration-dependent increase in calcium mobilization upon compound addition. Positive allosteric modulator activity was analyzed as a concentration-dependent increase in the EC20 acetylcholine response. Antagonist activity was analyzed as a concentration-dependent decrease in the EC80 acetylcholine response. Concentration-response curves were generated using a four-parameter logistical equation in XLFit curve fitting software (IDBS, Bridgewater, NJ) for Excel (Microsoft, Redmond, WA) or Prism (GraphPad Software, Inc., San Diego, CA).
Compounds were synthesized as described above. Activity (EC50 and Emax) was determined in the mAChR M4 cell-based functional assay as described above and the data are shown in Table 2. The compound number corresponds to the compound numbers used in Examples 1 to 11 and Tables 1.
On the technique in general: Calcium assays in cells follow changes in intracellular calcium, usually with a dye or a luminescent sensor.

Take `[2H]C1(Oc2ccc3c(c2)OCCO3)CCN(c2nn3c(=O)cc(C(F)F)nc3cc2C)CC1` [Compound 61, 2-(difluoromethyl)-7-(4-((2,3-dihydrobenzo[b][1,4]dioxin-6-yl)oxy)piperidin-1-yl-4-d)-8-methyl-4H-pyrimido[1,2-b]pyridazin-4-one]: the Emax at 30 µM is 94% and the EC50 turned out to be 12 nM.

`Cc1cc2nccc(=O)n2nc1N1CC[C@H](Oc2ccc3c(c2)OCCO3)[C@H](F)C1` [Compound 43, 7-((3R,4S)-4-((2,3-dihydrobenzo[b][1,4]dioxin-6-yl)oxy)-3-fluoropiperidin-1-yl)-8-methyl-4H-pyrimido[1,2-b]pyridazin-4-one]: the Emax at 30 µM was found to be 69% and the EC50 was found to be 171 nM.

With `[2H]C1(Oc2ccc3c(c2)OCCO3)CCN(c2nn3c(=O)ccnc3c(C)c2C)CC1` [Compound 70, 7-(4-((2,3-dihydrobenzo[b][1,4]dioxin-6-yl)oxy)piperidin-1-yl-4-d)-8,9-dimethyl-4H-pyrimido[1,2-b]pyridazin-4-one], the Emax at 30 µM was found to be 96% and the EC50 is 16 nM.

For the compound `[2H]C1(Oc2ccc3c(c2)OC([2H])([2H])C([2H])([2H])O3)CCN(c2nn3c(=O)c(C)c(C)nc3cc2C)CC1` [Compound 47, 7-(4-((2,3-dihydrobenzo[b][1,4]dioxin-6-yl-2,2,3,3-d4)oxy)piperidin-1-yl-4-d)-2,3,8-trimethyl-4H-pyrimido[1,2-b]pyridazin-4-one], the Emax at 30 µM worked out at 81% and the EC50 was 51 nM.

Turning to `[2H]C1([2H])Oc2ccc(OC3CCN(c4nn5c(=O)c(F)c(C)nc5c(C)c4C)CC3)cc2OC1([2H])[2H]` [Compound 16, 7-(4-((2,3-Dihydrobenzo[b][1,4]dioxin-6-yl-2,2,3,3-d4)oxy)piperidin-1-yl)-3-fluoro-2,8,9-trimethyl-4H-pyrimido[1,2-b]pyridazin-4-one], the Emax at 30 µM is 117% and the EC50 turned out to be 92 nM.

Consider `CCCc1ccc(OC2CCN(c3nn4c(=O)ccnc4cc3C)CC2)cc1` [Compound 91, 8-methyl-7-(4-(4-propylphenoxy)piperidin-1-yl)-4H-pyrimido[1,2-b]pyridazin-4-one], for which the Emax at 30 µM came to 70% and the EC50 is 1070 nM.

For `[2H]C1([2H])Oc2cc(OC3CCN(c4nn5c(=O)ccnc5cc4C)CC3)cc(F)c2OC1([2H])[2H]` [Compound 136, 7-(4-((8-fluoro-2,3-dihydrobenzo[b][1,4]dioxin-6-yl-2,2,3,3-d4)oxy)piperidin-1-yl)-8-methyl-4H-pyrimido[1,2-b]pyridazin-4-one], the Emax at 30 µM was 97% and the EC50 amounted to 73 nM.

`Cc1cc2nccc(=O)n2nc1N1CC[C@@H](Oc2ccc3c(c2)OCCCO3)[C@H](F)C1` [Compound 55, 7-((3R,4R)-4-((3,4-dihydro-2H-benzo[b][1,4]dioxepin-7-yl)oxy)-3-fluoropiperidin-1-yl)-8-methyl-4H-pyrimido[1,2-b]pyridazin-4-one]: the Emax at 30 µM was found to be 80% and the EC50 was determined as 135 nM.

As to `[2H]C1(Oc2ccc3c(c2)OC([2H])([2H])C([2H])([2H])O3)CCN(c2nn3c(=O)ccnc3c(COC)c2C)CC1` [Compound 103, 7-(4-((2,3-dihydrobenzo[b][1,4]dioxin-6-yl-2,2,3,3-d4)oxy)piperidin-1-yl-4-d)-9-(methoxymethyl)-8-methyl-4H-pyrimido[1,2-b]pyridazin-4-one], the Emax at 30 µM was 78% and the EC50 was determined as 455 nM.

On to `[2H]C1(Oc2ccc3c(c2)OC([2H])([2H])C([2H])([2H])O3)CCN(c2nn3c(=O)cc(COC)nc3c(C)c2C)CC1` [Compound 110, 7-(4-((2,3-dihydrobenzo[b][1,4]dioxin-6-yl-2,2,3,3-d4)oxy)piperidin-1-yl-4-d)-2-(methoxymethyl)-8,9-dimethyl-4H-pyrimido[1,2-b]pyridazin-4-one], for which the Emax at 30 µM is 80% and the EC50 came to 44 nM.
